The record followed here is publication PMC11413964, “Discovery of 1,3-disubstituted prop-2-en-1-one derivatives as inhibitors of neutrophilic inflammation via modulation of MAPK and Akt pathways” (Journal of Enzyme Inhibition and Medicinal Chemistry, 2024).

Broadly, the inhibition is the drop in the measured response relative to a control, in per cent. In general, melting point refers to the temperature, or range, at which the solid turns liquid. The term IC50 denotes the concentration that inhibits the measured activity by half.

For series [1], the system named is fMLF/cytochalasin B (CB)-activated human neutrophils. The experiment in a line: Superoxide anion generation (ferricytochrome c reduction) in fMLF/CB-activated human neutrophils. Conditions: Neutrophil, fMLF/CB stimulation, mean ± SEM (n = 3–5); for inhibition at 10 µM: 10 μM compound. The format is cell-based. The method, then:
(§1) The study involving neutrophils was approved by the Institutional Review Board of Chang Gung Memorial Hospital under IRB number: 201902217A3 and was conducted in accordance with the principles of the Declaration of Helsinki. Healthy volunteers aged 20–35 years provided signed informed consents for blood collection. Isolation of neutrophils was done using dextran sedimentation, Ficoll-Hypaque density gradient centrifugation, and hypotonic haemolysis. For the anti-inflammatory studies, neutrophils were suspended in Hank’s balanced salt solution (HBSS) containing 1 mM Ca^2+ at a pH of 7.4[72].
The reduction of ferricytochrome c was utilised to measure the production of SO anions in activated human neutrophils. […] The neutrophils were then stimulated with fMLF (0.1 μM) and CB (1 μg/mL) for 13 min. […] LY294002 was used as a positive control.

The test system is the same in series [2]. The experiment in a line: Elastase release in fMLF/CB-activated human neutrophils. The format is cell-based. The note with it: 10 μM compound; cytochalasin B only.
The test system is the same in series [3]. The experiment in a line: Superoxide anion generation (ferricytochrome c reduction) in fMLF/CB-activated human neutrophils. The format is cell-based. Conditions: 10 μM compound; cytochalasin B only.
Series [4] has the same test system. The experiment in a line: Elastase release in fMLF/CB-activated human neutrophils. The format is cell-based. The note with it: Homo sapiens, Neutrophil, fMLF/CB stimulation, mean ± SEM (n = 3–5); for inhibition at 10 µM: 10 μM compound. The method, then:
as §1
Neutrophils were subsequently stimulated with fMLF (0.1 μM) and CB (0.5 μg/mL) for 13 min. […] LY294002 was used as a positive control.

As to `CC(C)(C)C(=O)/C=C/c1ccc([N+](=O)[O-])cc1` [Compound 6, (E)-4,4-Dimethyl-1-(4-nitrophenyl)pent-1-en-3-one], the melting point fell in the range of 125 to 126 °C. The inhibition at 10 µM in series [1] was 23.3 ± 2.3%. Also, the “Induction of elastase release” value in series [2] is “induced elastase release”.
For `O=C(/C=C/c1ccc(Cl)cc1)c1ccc(-c2ccccc2)cc1` [Compound 11a, (E)-1-([1,1′-Biphenyl]-4-yl)-3-(4-chlorophenyl)prop-2-en-1-one], the “Induction of superoxide anion production” value in series [3] is listed as “an inducer rather than an inhibitor”.
In turn, `COc1ccccc1C(=O)/C=C/c1ccc(Cl)cc1` [Compound 12a, (E)-3-(4-Chlorophenyl)-1-(2-methoxyphenyl)prop-2-en-1-one] came in with a melting point of 76 to 78 °C. In series [1], the inhibition at 10 µM amounted to 93.8 ± 3.02% and the IC50 is 3.47 ± 0.6 µM. In series [4], the inhibition at 10 µM is 62.2 ± 5.35% and the IC50 came to 7.56 ± 1.05 µM.
The compound `CC(C)(C)Oc1ccc(/C=C/C(=O)c2ccc[nH]2)cc1` [Compound 13, (E)-3-(4-(tert-Butoxy)phenyl)-1-(1H-pyrrol-2-yl)prop-2-en-1-one] gave a melting point of 116.5 to 118.5 °C. Also, the “Induction of superoxide anion production” value in series [3] was “induced also SO anion generation”. For the same compound, the “Induction of elastase release” value in series [2] is reported as “induced elastase release”.
Compound `CC(C)(C)C(=O)/C=C/c1cc(F)cc(F)c1` [Compound 14, (E)-1-(3,5-Difluorophenyl)-4,4-dimethylpent-1-en-3-one] returned a melting point of 71 to 72 °C. In series [1], the inhibition at 10 µM stood at 69.1 ± 6.71% and half-maximal inhibition (IC50) was put at 6.52 ± 0.57 µM. In addition, in series [4], the inhibition at 10 µM worked out at 12 ± 3.52%.
The compound `CC(C)(C)C(=O)/C=C/c1ccc(Cl)cc1Cl` [Compound 15, (E)-1-(2,4-Dichlorophenyl)-4,4-dimethylpent-1-en-3-one] returned a melting point of 103 to 104 °C. The inhibition at 10 µM in series [1] turned out to be 43 ± 2.78%. The “Induction of elastase release” value in series [2] is “induced elastase release”.
For `CC(C)(C)C(=O)/C=C/c1ccc(Cl)c(Cl)c1` [Compound 16, (E)-1-(3,4-Dichlorophenyl)-4,4-dimethylpent-1-en-3-one], the melting point was in the range of 94 to 96 °C. In addition, the inhibition at 10 µM in series [1] turned out to be 16.5 ± 4.67%. The inhibition at 10 µM in series [4] came out at 10.2 ± 0.59%.
The corresponding values for `CC(C)(C)C(=O)/C=C/c1ccc(Cl)c(F)c1` [Compound 17, (E)-1-(4-Chloro-3-fluorophenyl)-4,4-dimethylpent-1-en-3-one] are 98.5 to 99.2 °C, 40.6 ± 3.89% and 9.13 ± 1.78%.
`COc1ccccc1C(=O)/C=C/c1ccccc1Cl` [Compound 17a, (E)-3-(2-Chlorophenyl)-1-(2-methoxyphenyl)prop-2-en-1-one]: the melting point fell in the range of 60 to 62 °C. Also, in series [1], the inhibition at 10 µM came out at 99.05 ± 0.64% and the IC50 came out at 2.95 ± 0.4 µM. For the same compound, in series [4], the inhibition at 10 µM came out at 75.8 ± 6.19% and the IC50 was 5.36 ± 0.67 µM.
In turn, `Cc1ccc(/C=C/C(=O)C(C)(C)C)cc1F` [Compound 18, (E)-1-(3-Fluoro-4-methylphenyl)-4,4-dimethylpent-1-en-3-one] showed a melting point of 70 to 71 °C. Moreover, in series [1], the inhibition at 10 µM is 31.3 ± 4.71%. In addition, in series [4], the inhibition at 10 µM worked out at 7.77 ± 0.8%.
The like results for `COc1cccc(C(=O)/C=C/c2ccccc2Cl)c1` [Compound 18a, (E)-3-(2-Chlorophenyl)-1-(3-methoxyphenyl)prop-2-en-1-one] were, in that order, 117 °C, 47.6 ± 5.41% and 31.3 ± 7.29%.
Regarding `COc1ccc(/C=C/C(=O)C(C)(C)C)cc1F` [Compound 19, (E)-1-(3-Fluoro-4-methoxyphenyl)-4,4-dimethylpent-1-en-3-one], the melting point was determined as 84.6 °C. For the same compound, the inhibition at 10 µM in series [1] came to 2.87 ± 2.8%. In addition, the inhibition at 10 µM in series [4] came out at 3.9 ± 1.68%.
The corresponding values for `COc1ccc(/C=C/C(=O)c2ccccc2C)cc1F` [Compound 20, (E)-3-(3-Fluoro-4-methoxyphenyl)-1-(o-tolyl)prop-2-en-1-one] are 69 to 70 °C, 49.8 ± 5.82% and 10.6 ± 2.28%.
As for `COc1ccc(C(=O)/C=C/c2ccc(OC)c(F)c2)c(OC)c1` [Compound 21, (E)-1-(2,4-Dimethoxyphenyl)-3-(3-fluoro-4-methoxyphenyl)prop-2-en-1-one], the melting point was in the range of 85 to 86 °C. Moreover, the inhibition at 10 µM in series [1] came to 17.1 ± 3.58%. In addition, the inhibition at 10 µM in series [4] came to 31.6 ± 5.88%.
`COc1ccccc1C(=O)/C=C/c1cccc(Cl)c1` [Compound 21a, (E)-3-(3-Chlorophenyl)-1-(2-methoxyphenyl)prop-2-en-1-one] registered a melting point of 96 to 98 °C. In series [1], the inhibition at 10 µM stood at 89.9 ± 2.38% and the IC50 worked out at 3.79 ± 0.69 µM. In addition, in series [4], the inhibition at 10 µM was 80.4 ± 4.44% and the half-inhibitory concentration (IC50) was determined as 5.63 ± 0.51 µM.
In turn, `COc1ccc(/C=C/C(=O)C(C)(C)C)c(F)c1F` [Compound 22, (E)-1-(2,3-Difluoro-4-methoxyphenyl)-4,4-dimethylpent-1-en-3-one] showed a melting point of 128 to 129 °C. Moreover, in series [1], the inhibition at 10 µM is 31.4 ± 3.36%. In addition, the inhibition at 10 µM in series [4] is 4.84 ± 2.66%.
As to `COc1ccc(C(=O)/C=C/c2cccc(Cl)c2)cc1` [Compound 22a, (E)-3-(3-Chlorophenyl)-1-(4-methoxyphenyl)prop-2-en-1-one], the melting point lay within 97 to 99 °C. Also, in series [1], the inhibition at 10 µM worked out at 65.2 ± 3.73% and 6.6 ± 0.6 µM corresponded to half-maximal inhibition (IC50). The inhibition at 10 µM in series [4] was determined as 36.1 ± 6.48%.
Take `COc1cc(F)c(/C=C/C(=O)C(C)(C)C)cc1F` [Compound 23, (E)-1-(2,5-Difluoro-4-methoxyphenyl)-4,4-dimethylpent-1-en-3-one]: the melting point was in the range of 131 to 132 °C. Besides, in series [1], the inhibition at 10 µM was found to be 8.1 ± 1.88%. For the same compound, the inhibition at 10 µM in series [4] is 2.5 ± 1.53%.
`O=C(/C=C/c1cc(F)cc(F)c1)c1ccc(Cl)cc1` [Compound 23a, (E)-1-(4-Chlorophenyl)-3-(3,5-difluorophenyl)prop-2-en-1-one] had a melting point of 123.6 to 124 °C. Moreover, in series [1], the inhibition at 10 µM is 96.04 ± 0.09% and it took 2.03 ± 0.27 µM to reach half-maximal inhibition (IC50). In series [4], the inhibition at 10 µM was determined as 83 ± 2.64% and the IC50 worked out at 2.32 ± 0.26 µM.
In the case of `COc1cccc(C(=O)/C=C/c2cc(F)cc(F)c2)c1` [Compound 24a, (E)-3-(3,5-Difluorophenyl)-1-(3-methoxyphenyl)prop-2-en-1-one], the melting point lay in the range of 95.2 to 97.2 °C. For the same compound, the inhibition at 10 µM in series [1] was 3.12 ± 5.02%. For the same compound, in series [4], the inhibition at 10 µM came to 37.1 ± 7.65%.
For `COc1ccc(C(=O)/C=C/c2cc(F)cc(F)c2)cc1` [Compound 25a, (E)-3-(3,5-Difluorophenyl)-1-(4-methoxyphenyl)prop-2-en-1-one], the melting point was in the range of 154.3 to 155 °C. For the same compound, in series [1], the inhibition at 10 µM came out at 78.2 ± 9.5% and the IC50 is 4.7 ± 0.6 µM. The inhibition at 10 µM in series [4] was 20.9 ± 3.64%.
Turning to `CC(C)(C)C(=O)/C=C/c1ccc2ccccc2c1` [Compound 26, (E)-4,4-Dimethyl-1-(naphthalen-2-yl)pent-1-en-3-one], the melting point was 117 to 119 °C. Moreover, the inhibition at 10 µM in series [1] turned out to be 10.6 ± 3.34%. Besides, the “Induction of elastase release” value in series [2] is recorded as “induced elastase release”.
`O=C(/C=C/c1ccc2ccccc2n1)c1ccccc1` [Compound 28, (E)-1-Phenyl-3-(quinolin-2-yl)prop-2-en-1-one] returned a melting point of 118 to 120 °C. Also, in series [1], the inhibition at 10 µM came to 106 ± 1.73% and it took 1.73 ± 0.07 µM to reach half-maximal inhibition (IC50). Moreover, in series [4], the inhibition at 10 µM turned out to be 99.1 ± 7.32% and the IC50 was 2.17 ± 0.3 µM.
The compound `CC(C)(C)C(=O)/C=C/c1ccc(-c2ccccc2)cc1` [Compound 29, (E)-1-([1,1′-Biphenyl]-4-yl)-4,4-dimethylpent-1-en-3-one] showed a melting point of 128 to 130 °C. Also, the inhibition at 10 µM in series [1] was found to be 2.23 ± 0.94%. Further, the “Induction of elastase release” value in series [2] is “induced elastase release”.
The compound `CCOc1ccccc1C(=O)/C=C/c1ccc(-c2ccccc2)cc1` [Compound 30, (E)-3-([1,1′-Biphenyl]-4-yl)-1-(2-ethoxyphenyl)prop-2-en-1-one] came in with a melting point of 98 to 99 °C. Besides, in series [1], the inhibition at 10 µM amounted to 8.69 ± 2.43%. For the same compound, the inhibition at 10 µM in series [4] was 15.8 ± 2.57%.
